From ChEMBL document CHEMBL6127034, “Design, synthesis and biological evaluation of a novel PAK1 degrader for the treatment of triple negative breast cancer” (Bioorg Med Chem, 2024)
Activity calls are given as the source filed them. The calls are words filed in the database; no cut-off is given here.

Tests used:
[1] = test system: MDA-MB-231; assay: Antitumor activity against human MDA-MB-231 cells xenografted in BALB/c mouse assessed as reduction in tumor weight at 20 mg/kg, ip qd for 12 days; assay type: functional, organism-based; settings: time 12.0 day
[2] = test system: MDA-MB-231; assay: Inhibition of cell proliferation of human MDA-MB-231 cells at 2.5 uM by crystal violet staining based colony formation assay; assay type: functional
[3] = test system: MDA-MB-231; assay: Induction of apoptosis in human MDA-MB-231 cells assessed as necrotic cells at 2.5 to 10 uM incubated for 12 hrs by Annexin V-FITC/PI staining based flow cytometry (reference value: 1.08 %); assay type: functional; settings: dose 2.5-10 µM
[4] = target: T1, von Hippel-Lindau disease tumor suppressor/Serine/threonine-protein kinase PAK 1 (Homo sapiens, UniProt Q13153+P40337); assay: PROTAC activity at VHL/PAK1 in human MDA-MB-231 cells assessed as fold change in protein expression at 2.5 uM incubated for 48 hrs by Western blot analysis relative to control; assay type: cell-based
Target sequence in this assay (Q13153 2-545 limits assumed): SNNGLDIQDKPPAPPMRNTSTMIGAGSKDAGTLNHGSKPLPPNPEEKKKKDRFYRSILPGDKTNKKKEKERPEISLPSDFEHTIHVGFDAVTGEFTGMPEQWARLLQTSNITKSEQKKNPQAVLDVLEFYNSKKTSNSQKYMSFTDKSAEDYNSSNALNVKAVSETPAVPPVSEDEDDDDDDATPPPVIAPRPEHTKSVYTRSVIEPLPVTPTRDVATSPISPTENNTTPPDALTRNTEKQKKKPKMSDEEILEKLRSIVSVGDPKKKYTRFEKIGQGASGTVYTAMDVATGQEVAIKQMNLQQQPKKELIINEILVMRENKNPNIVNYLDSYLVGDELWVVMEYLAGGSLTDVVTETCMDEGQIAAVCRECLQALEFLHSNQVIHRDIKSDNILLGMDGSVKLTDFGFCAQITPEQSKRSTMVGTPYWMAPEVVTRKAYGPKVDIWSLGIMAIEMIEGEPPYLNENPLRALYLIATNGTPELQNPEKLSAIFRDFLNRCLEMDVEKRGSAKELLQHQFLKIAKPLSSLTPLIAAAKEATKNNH
Target sequence in this assay (P40337 whole entry partner): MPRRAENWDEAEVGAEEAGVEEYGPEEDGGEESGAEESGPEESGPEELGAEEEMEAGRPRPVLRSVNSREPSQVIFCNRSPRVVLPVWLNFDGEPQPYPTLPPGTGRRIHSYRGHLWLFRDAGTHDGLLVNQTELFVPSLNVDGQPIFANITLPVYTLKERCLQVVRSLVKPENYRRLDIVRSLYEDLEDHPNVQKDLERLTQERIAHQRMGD

[5] = test system: MDA-MB-231; assay: Induction of apoptosis in human MDA-MB-231 cells assessed as early apoptotic cells at 2.5 uM incubated for 12 to 48 hrs by Annexin V-FITC/PI staining based flow cytometry (reference value: 1.12 %); assay type: functional; settings: time 12-48 hrs
[6] = test system: MDA-MB-231; assay: Induction of apoptosis in human MDA-MB-231 cells assessed as viable cells at 2.5 to 10 uM incubated for 24 hrs by Annexin V-FITC/PI staining based flow cytometry (reference value: 94.8 %); assay type: functional; settings: dose 2.5-10 µM
[7] = test system: MDA-MB-231; assay: Induction of apoptosis in human MDA-MB-231 cells assessed as necrotic cells at 2.5 to 10 uM incubated for 24 hrs by Annexin V-FITC/PI staining based flow cytometry (reference value: 1.08 %); assay type: functional; settings: dose 2.5-10 µM
[8] = test system: MDA-MB-231; assay: Induction of apoptosis in human MDA-MB-231 cells assessed as increase in cleaved caspase-9 level at 2.5 to 10 uM incubated upto 48 hrs by Western blot analysis; assay type: functional, cell-based; settings: dose 2.5-10 µM
[9] = target: T2, Serine/threonine-protein kinase PAK 1 (Homo sapiens, UniProt Q13153); assay: Inhibition of PAK1 in human MDA-MB-231 cells assessed as decrease in ERK1/2 phosphorylation at Thr202/Tyr204 incubated upto 48 hrs by Western blot analysis; assay type: cell-based
[10] = test system: MDA-MB-231; assay: Induction of apoptosis in human MDA-MB-231 cells assessed as necrotic cells at 2.5 uM incubated for 12 to 48 hrs by Annexin V-FITC/PI staining based flow cytometry (reference value: 0.43 %); assay type: functional; settings: time 12-48 hrs
[11] = test system: MDA-MB-231; assay: Inhibition of cell migration in human MDA-MB-231 cells assessed as increase in E-Cadherin level by Western blot analysis; assay type: functional, cell-based; settings: time <= 48.0 hrs, TDE = time-dependent effect
[12] = test system: MDA-MB-231; assay: Induction of apoptosis in human MDA-MB-231 cells assessed as viable cells at 2.5 to 10 uM incubated for 48 hrs by Annexin V-FITC/PI staining based flow cytometry (reference value: 94.8 %); assay type: functional; settings: dose 2.5-10 µM
[13] = test system: MDA-MB-231; assay: Induction of apoptosis in human MDA-MB-231 cells assessed as increase in cleaved PARP level at 2.5 to 10 uM incubated upto 48 hrs by Western blot analysis; assay type: functional, cell-based; settings: dose 2.5-10 µM
[14] = test system: MDA-MB-231; assay: Induction of apoptosis in human MDA-MB-231 cells xenografted in BALB/c mouse assessed as increase in Bax level at 20 mg/kg, ip qd for 12 days by Western blot analysis; assay type: functional, organism-based; settings: time 12.0 day
[15] = test system: MDA-MB-231; assay: Induction of apoptosis in human MDA-MB-231 cells assessed as early apoptotic cells at 2.5 to 10 uM incubated for 12 hrs by Annexin V-FITC/PI staining based flow cytometry (reference value: 1.70 %); assay type: functional; settings: dose 2.5-10 µM
[16] = test system: MDA-MB-231; assay: Induction of apoptosis in human MDA-MB-231 cells xenografted in BALB/c mouse assessed as decrease in MMP-2 at 20 mg/kg, ip qd for 12 days by Western blot analysis; assay type: functional, organism-based; settings: time 12.0 day
[17] = test system: MDA-MB-231; assay: Induction of apoptosis in human MDA-MB-231 cells assessed as late apoptotic cells at 2.5 to 10 uM incubated for 12 hrs by Annexin V-FITC/PI staining based flow cytometry (reference value: 2.46 %); assay type: functional; settings: dose 2.5-10 µM
[18] = test system: MDA-MB-231; assay: Inhibition of cell proliferation of human MDA-MB-231 cells xenografted in BALB/c mouse assessed as reduction in Ki-67 level at 20 mg/kg, ip qd for 12 days by IHC analysis; assay type: functional, organism-based; settings: time 12.0 day
[19] = test system: MDA-MB-231; assay: Inhibition of cell proliferation of human MDA-MB-231 cells assessed as decrease in Ki-67 expression at 2.5 uM incubated for 24 hrs by immunofluorescence based analysis; assay type: functional
[20] = target: T1, von Hippel-Lindau disease tumor suppressor/Serine/threonine-protein kinase PAK 1; assay: PROTAC activity at VHL/PAK1 in human MDA-MB-231 cells assessed as induction of protein degradation incubated for 48 hrs by Western blot analysis; assay type: cell-based
[21] = test system: MDA-MB-231; assay: Inhibition of cell migration in human MDA-MB-231 cells upto 10 uM incubated for 24 hrs by transwell assay; assay type: functional, cell-based
[22] = test system: MDA-MB-231; assay: Induction of apoptosis in human MDA-MB-231 cells xenografted in BALB/c mouse assessed as increase in cleaved caspase-3 level at 20 mg/kg, ip qd for 12 days by Western blot analysis; assay type: functional, organism-based; settings: time 12.0 day
[23] = test system: MDA-MB-231; assay: Induction of apoptosis in human MDA-MB-231 cells assessed as viable cells at 2.5 uM incubated for 12 to 48 hrs by Annexin V-FITC/PI staining based flow cytometry (reference value: 97.0 %); assay type: functional; settings: time 12-48 hrs, read-out: Activity
[24] = target: T2, Serine/threonine-protein kinase PAK 1; assay: In vivo inhibition of PAK1 phosphorylation at S199 in human MDA-MB-231 cells xenografted in BALB/c mouse at 20 mg/kg, ip qd for 12 days by Western blot analysis; assay type: functional, organism-based; settings: time 12.0 day
[25] = target: T2, Serine/threonine-protein kinase PAK 1; assay: In vivo inhibition of PAK1 phosphorylation at S144 in human MDA-MB-231 cells xenografted in BALB/c mouse at 20 mg/kg, ip qd for 12 days by Western blot analysis; assay type: functional, organism-based; settings: time 12.0 day
[26] = target: T2, Serine/threonine-protein kinase PAK 1; assay: Binding affinity to CM5 chip-immobilized recombinant PAK1 (unknown origin) by SPR analysis
[27] = test system: MDA-MB-231; assay: Inhibition of cell migration in human MDA-MB-231 cells upto 10 uM incubated upto 48 hrs by wound healing assay; assay type: functional, cell-based
[28] = target: T2, Serine/threonine-protein kinase PAK 1; assay: In vivo inhibition of PAK1 in human MDA-MB-231 cells xenografted in BALB/c mouse at 20 mg/kg, ip qd for 12 days by Western blot analysis; assay type: functional, organism-based; settings: time 12.0 day
[29] = target: T2, Serine/threonine-protein kinase PAK 1; assay: In vivo inhibition of PAK1 in human MDA-MB-231 cells xenografted in BALB/c mouse at 20 mg/kg, ip qd for 12 days by IHC analysis; assay type: functional, organism-based; settings: time 12.0 day
[30] = test system: MDA-MB-231; assay: Inhibition of cell proliferation of human MDA-MB-231 cells at 2.5 uM by EdU staining based analysis; assay type: functional
[31] = test system: MDA-MB-231; assay: Inhibition of cell migration in human MDA-MB-231 cells at 2.5 uM incubated for 24 hrs by transwell assay; assay type: functional, cell-based
[32] = target: T2, Serine/threonine-protein kinase PAK 1; assay: Inhibition of PAK1 phosphorylation at S199 in human MDA-MB-231 cells incubated upto 48 hrs by Western blot analysis; assay type: cell-based
[33] = test system: MDA-MB-231; assay: Antitumor activity against human MDA-MB-231 cells xenografted in BALB/c mouse assessed as reduction in tumor growth rate at 20 mg/kg, ip qd for 12 days; assay type: functional, organism-based; settings: time 12.0 day

T2 sequence (Q13153 whole entry): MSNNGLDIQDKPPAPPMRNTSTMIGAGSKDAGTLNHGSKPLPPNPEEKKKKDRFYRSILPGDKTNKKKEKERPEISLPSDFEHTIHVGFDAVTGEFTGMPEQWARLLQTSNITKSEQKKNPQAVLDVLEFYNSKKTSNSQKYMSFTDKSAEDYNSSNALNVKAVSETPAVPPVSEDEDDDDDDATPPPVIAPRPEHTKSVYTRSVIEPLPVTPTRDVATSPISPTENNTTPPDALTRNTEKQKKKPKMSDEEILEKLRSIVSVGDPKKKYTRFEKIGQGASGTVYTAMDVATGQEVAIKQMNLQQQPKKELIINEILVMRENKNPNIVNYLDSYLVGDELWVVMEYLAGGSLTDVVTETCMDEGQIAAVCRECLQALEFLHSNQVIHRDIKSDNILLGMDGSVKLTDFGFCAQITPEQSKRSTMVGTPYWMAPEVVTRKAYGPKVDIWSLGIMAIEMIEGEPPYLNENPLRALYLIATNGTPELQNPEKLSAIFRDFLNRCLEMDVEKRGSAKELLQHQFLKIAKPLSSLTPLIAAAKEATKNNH

Compound: Cc1ncsc1-c1ccc([C@H](C)NC(=O)[C@@H]2C[C@@H](O)CN2C(=O)[C@@H](NC(=O)CCc2cn(CCCCCCCn3c(=O)c(-c4ccc(Cl)cc4Cl)cc4cnc(NC5CC5)nc43)nn2)C(C)(C)C)cc1
- Activity [1]: Active
- inhibition [2]: Active
- Activity [3]: 3.7%
- fold change (FC) [4]: 0.29
- Activity [5]: 5.62%
- Activity [6]: 76.6%
- Activity [7]: 4.92%
- Activity [8]: Active
- inhibition [9]: Active
- Activity [10]: 1.4%
- inhibition [11]: Tde
- Activity [12]: 55.4%
- Activity [13]: Active
- Activity [14]: Active
- Activity [15]: 4.37%
- Activity [16]: Active
- Activity [17]: 5.67%
- inhibition [18]: Active
- inhibition [19]: Active
- DC50 [20]: 480 nM
- Activity ([20]; dose <= 200.0 µM): Dose-Dependent Effect
- inhibition [21]: Active
- Activity [22]: Active
- viability at 2.5 µM [23]: 84.8%
- inhibition [24]: Active
- inhibition [25]: Active
- Activity [26]: Dose-Dependent Effect
- inhibition [27]: Active
- inhibition [28]: Active
- inhibition [29]: Active
- inhibition [30]: Active
- inhibition [31]: Active
- inhibition [32]: Active
- Activity [33]: Active
